Measurements from PMC12051620, “Molecular basis underlying the specificity of an antagonist AA92593 for mammalian melanopsins” (The Journal of Biological Chemistry, 2025).

Legend:
Experiment in all cases: GsX GloSensor assay with Gsα/q11
Format in all cases: cell-based, Branchiostoma lanceolatum
Settings in all cases: 16.7 μM AA92593, COS-1 cells
[1] = system: lanceolatum melanopsin F189^ECL2W mutant
Excerpt: (§1) We assessed the effect of the antagonist on the mutants using the GsX GloSensor assay with Gsα/q11. […] Furthermore, the double substitution F189^ECL2W/I207^5.42F further increased the susceptibility of the lanceolatum melanopsin to the antagonist by ∼88% (Fig. 7, G, H, and I). The AA92593-induced inhibition of the double mutant F189^ECL2W/I207^5.42F was as efficient as that of human melanopsin (Fig. 7I). […] Taken together, the introduction of Trp-189^ECL2 and Phe-207^5.42 rendered lanceolatum melanopsin highly sensitive to the antagonist (Fig. 7, G, H, and I).
(§2) For GloSensor assay, opsins, GloSensor assay sensor (coded by pGlo-22F), and NanoBiT-tagged G proteins were transiently expressed in COS-1 cells (kindly provided from Dr David Farrens, Oregon Health and Science University) using PEI as described previously ([24], [52]). For the GsX GloSensor assay ([12], [13]), each well of a 96-well assay plate (Corning) was transfected with 50 ng opsin plasmid, 16.7 ng G protein plasmid, 50 ng pGlo-22F plasmid (Promega), and 500 ng PEI in 25 μl Opti-mem and 75 μl Dulbecco's modified Eagle's medium (D-MEM). For NanoBiT G protein dissociation assay, each well of a 96-well assay plate was transfected with 50 ng opsin plasmid, 5 ng Lg-BiT inserted Gqα (Gqα-LgBiT) plasmid, 25 ng Gβ1 plasmid, 25 ng Sm-BiT fused Gγ2 plasmid, 5 ng RIC8A plasmid, and 500 ng PEI in 25 μl Opti-mem and 75 μl D-MEM. For GFP-fluorescence microscopy, a 35-mm cell culture dish (IWAKI) was transfected with 2 μg melanopsin-GFP plasmid and 8 μg PEI in 400 μl Opti-mem and 1.2 ml D-MEM. […]
(§3) The transfected COS-1 cells were incubated at 37 °C, 5% CO2 for 2 days, and the medium was aspirated and exchanged with 50 μl of HBSS (145 mM NaCl, 10 mM D-glucose, 5 mM KCl, 1 mM MgCl2, 1.7 mM CaCl2, 1.5 mM NaHCO3, 10 mM Hepes, pH 7.4), containing 33.3, 20, 10, 2, 0.2, 0.02, 0.002, or 0 μM AA92593, 0.5% dimetyl sulfoxide (DMSO), and 4% (vol/vol) GloSensor cAMP reagent stock solution. […] Then, the cells were incubated at room temperature for 1 h, and luminescence changes were monitored. After incubation of the cells with AA92593, luminescence measurement was interrupted, the plate was ejected, and the cells were added with 50 μl of HBSS containing 0.2 μM 9-cis-retinal. […] Luminescence was measured using GM-2000 or GM-3510 microplate reader (Promega). Luminescence level of each well was measured every 30 s with integration time of 0.6 to 0.9 s. To illuminate opsins, luminescence measurement was interrupted, the plate was ejected, and the plate was illuminated by white light with CN-160 LED video light (light intensity, ∼9 mW/cm^2) (NEEWER). […] After illumination, luminescence measurement was resumed. The measured luminescence levels were normalized to the level at the starting point (time = 0 min). […]

[2] = system: lanceolatum melanopsin I207^5.42F mutant
Excerpt: as §1, §2, §3

[3] = system: lanceolatum melanopsin A269^6.52S mutant
Excerpt: as §1, §2, §3

[4] = system: lanceolatum melanopsin I207^5.42L mutant
Excerpt: as §1, §2, §3

In the case of `COc1ccc(S(=O)(=O)N2CCCCC2)cc1C` [AA92593], the “increase in sensitivity to AA92593 vs WT” value [1] was ~21%, the “increase in sensitivity to AA92593 vs WT” value [2] was ~42% and the “change in sensitivity to AA92593 vs WT” value [3] was “little changes”. For the same compound, the “change in sensitivity to AA92593 vs WT” value [4] was “little changes”.
